One experiment has as its target IMP-1 (Serratia marcescens, UniProt P52699). The experiment in a line: Enzyme activity: determination of IC50, fluorescence assay with CCF2-FA substrate. The note with it: IMP-1 enzyme 2 pM, CCF2-FA 1.25 μM, 2 hours at 25° C.; read-out: IMP1 IC50. Format: biochemical. In a few lines:
(§1)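 Enzyme at 1 pM (NDM-1), 2 pM (IMP-1) or 30 pM (VIM-1) was incubated with inhibitor (20 μM to 0.00063 μM) and 1.25 μM CCF2-FA in 100 mM KH2PO4 pH 7, 0.005% Tween-20, 10 μM ZnSO4 for 2 hours at 25° C. Fluorescence was read at ex 405/em 460 nm; IC50 from 4-parameter fit.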

The target of another experiment is NDM-1 (Klebsiella pneumoniae, UniProt C7C422). Described as above. The class given is biochemical. The note with it: NDM-1 enzyme 1 pM, CCF2-FA 1.25 μM, 2 hours at 25° C.; read-out: NDM1 IC50. The method, boiled down: as §1
NDM-1, sequence (C7C422 29-270, looked up, species assumed): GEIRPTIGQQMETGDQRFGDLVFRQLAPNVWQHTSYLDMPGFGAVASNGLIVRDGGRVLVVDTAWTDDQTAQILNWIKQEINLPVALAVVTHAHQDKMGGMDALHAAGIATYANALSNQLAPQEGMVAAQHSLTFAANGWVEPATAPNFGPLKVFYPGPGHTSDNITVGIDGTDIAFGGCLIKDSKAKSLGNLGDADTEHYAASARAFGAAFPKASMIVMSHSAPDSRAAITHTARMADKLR
A further experiment deals with VIM-1 (Pseudomonas aeruginosa, UniProt A0A0F7KYQ8). The description is as above. The class given is biochemical. As to conditions: VIM-1 enzyme 30 pM, CCF2-FA 1.25 μM, 2 hours at 25° C.; read-out: VIM1 IC50. The method, boiled down:
as §1

The test system of experiment [1] is Escherichia coli expressing NDM-1 (CLB30016). Kind of experiment: Antibiotic potentiation activity: synergistic concentration (MITC95) with imipenem, growth by OD600. The class given is cell-based. As to conditions: E. coli CLB30016 (NDM-1), 95% inhibition of growth. The method, boiled down:
(§2)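 Colonies from overnight agar plates (35 °C) were suspended in saline and diluted 1:100 into 1.1× CAMHB. Inhibitor (final 200 μM to 0.195 μM) was combined with imipenem at 1 or 4 μg/ml, incubated 22–24 h at 35 °C, and absorbance read; MITC95 is the lowest inhibitor concentration giving 95% growth inhibition.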

For experiment [2], the system named is Klebsiella pneumoniae expressing VIM-1 (IHMA599644). The experiment is described as above. Format: cell-based. As to conditions: K. pneumoniae IHMA599644 (VIM-1), 95% inhibition of growth. In a few lines:
as §2

Experiment [3] deals with Serratia marcescens expressing IMP-1 (CL5741). The experiment is described as above. The class given is cell-based. The note with it: S. marcescens CL5741 (IMP-1), 95% inhibition of growth. The method, boiled down: as §2

IMP-1, sequence (P52699 19-246, looked up, species assumed): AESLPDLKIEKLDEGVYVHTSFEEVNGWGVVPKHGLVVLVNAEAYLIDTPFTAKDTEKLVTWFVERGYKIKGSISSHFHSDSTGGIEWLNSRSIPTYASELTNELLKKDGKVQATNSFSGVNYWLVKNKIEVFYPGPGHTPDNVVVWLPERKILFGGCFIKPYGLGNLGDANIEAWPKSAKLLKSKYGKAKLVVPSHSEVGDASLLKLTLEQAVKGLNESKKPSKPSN

For `CCC[C@H](C(=O)O)[C@H](Cc1cccc(-c2ccnc(N3CCNCC3)c2)c1)c1nn[nH]n1` [Example 340, (2S)-2-[(1S)-2-[3-(2-piperazin-1-ylpyridin-4-yl)phenyl]-1-(2H-tetrazol-5-yl)ethyl]pentanoic acid], the IC50 (in general, the midpoint of a concentration-inhibition curve) at IMP-1 was 0.18 µM; at NDM-1 it was 0.046 µM; on VIM-1 it was 0.0035 µM. The “NDM1 EC30016 MITC95” value in experiment [1] came out at 38 µM. Besides, the “VIM1 KP599644 MITC95” value in experiment [2] is 50 µM. Also, the “IMP1 SM5741 MITC95” value in experiment [3] turned out to be 4.7 µM.
With `CCC[C@H](C(=O)O)[C@H](Cc1cccc(-c2cccc(C(N)=O)c2)c1)c1nn[nH]n1` [Example 341, (2S)-2-[(1S)-2-(3′-carbamoylbiphenyl-3-yl)-1-(2H-tetrazol-5-yl)ethyl]pentanoic acid], the IC50 at IMP-1 turned out to be 0.11 µM; at NDM-1, 0.0066 µM; on VIM-1, 0.00099 µM. The “NDM1 EC30016 MITC95” value in experiment [1] was found to be 18.8 µM. For the same compound, the “VIM1 KP599644 MITC95” value in experiment [2] came to 18.8 µM. Further, in experiment [3], the “IMP1 SM5741 MITC95” value is 2.3 µM.
Regarding `CCC[C@H](C(=O)O)[C@H](Cc1cccc(-c2ccc(N)nc2)c1)c1nn[nH]n1` [Example 342, (2S)-2-[(1S)-2-[3-(6-aminopyridin-3-yl)phenyl]-1-(2H-tetrazol-5-yl)ethyl]pentanoic acid], the IC50 worked out at 0.17 µM on IMP-1, 0.0047 µM at NDM-1 and 0.0011 µM on VIM-1. Moreover, the “NDM1 EC30016 MITC95” value in experiment [1] came to 6.2 µM. The “VIM1 KP599644 MITC95” value in experiment [2] was 12.5 µM. The “IMP1 SM5741 MITC95” value in experiment [3] stood at 3.1 µM.
Consider `CCC[C@H](C(=O)O)[C@H](Cc1cccc(-c2ccc(NS(C)(=O)=O)cc2)c1)c1nn[nH]n1` [Example 343, (2S)-2-[(1S)-2-{4′-[(methylsulfonyl)amino]biphenyl-3-yl}-1-(2H-tetrazol-5-yl)ethyl]pentanoic acid], for which the IC50 worked out at 0.022 µM on IMP-1, 0.011 µM on NDM-1 and 0.0024 µM at VIM-1. For the same compound, the “NDM1 EC30016 MITC95” value in experiment [1] stood at 25 µM. Moreover, the “VIM1 KP599644 MITC95” value in experiment [2] is 18.8 µM. In experiment [3], the “IMP1 SM5741 MITC95” value is 0.39 µM.
Regarding `CCC[C@H](C(=O)O)[C@H](Cc1cccc(-c2ccc(C(=O)NC)cc2)c1)c1nn[nH]n1` [Example 344, (2S)-2-[(1S)-2-[4′-(methylcarbamoyl)biphenyl-3-yl]-1-(2H-tetrazol-5-yl)ethyl]pentanoic acid], the IC50 worked out at 0.028 µM on IMP-1, 0.014 µM on NDM-1 and 0.0017 µM on VIM-1. Also, in experiment [1], the “NDM1 EC30016 MITC95” value worked out at 38 µM. In addition, the “VIM1 KP599644 MITC95” value in experiment [2] worked out at 50 µM. In addition, the “IMP1 SM5741 MITC95” value in experiment [3] was 0.59 µM.
For the compound `CCC[C@H](C(=O)O)[C@H](Cc1cccc(-c2cccc(C3CCCNC3)c2)c1)c1nn[nH]n1` (stereo partly drawn) [Example 345, (2S)-2-[(1S)-2-(3′-piperidin-3-ylbiphenyl-3-yl)-1-(2H-tetrazol-5-yl)ethyl]pentanoic acid], the IC50 at IMP-1 is 0.27 µM; at NDM-1 it was 0.039 µM; on VIM-1, 0.0017 µM. The “NDM1 EC30016 MITC95” value in experiment [1] was 25 µM. Also, in experiment [2], the “VIM1 KP599644 MITC95” value was 18.8 µM. Also, in experiment [3], the “IMP1 SM5741 MITC95” value worked out at 6.2 µM.
For `CCC[C@H](C(=O)O)[C@H](Cc1cccc(-c2ccc(N3CCOCC3)nc2)c1)c1nn[nH]n1` [Example 346, (2S)-2-[(1S)-2-[3-(6-morpholin-4-ylpyridin-3-yl)phenyl]-1-(2H-tetrazol-5-yl)ethyl]pentanoic acid], the IC50 amounted to 0.32 µM at IMP-1, 0.021 µM at NDM-1 and 0.0022 µM on VIM-1. Further, the “NDM1 EC30016 MITC95” value in experiment [1] stood at 75 µM. In experiment [2], the “VIM1 KP599644 MITC95” value turned out to be 38 µM. For the same compound, the “IMP1 SM5741 MITC95” value in experiment [3] was determined as 6.2 µM.
`CCC[C@H](C(=O)O)[C@H](Cc1cccc(-c2cncc(CN3CCCCC3)c2)c1)c1nn[nH]n1` [Example 347, (2S)-2-[(1S)-2-{3-[5-(piperidin-1-ylmethyl)pyridin-3-yl]phenyl}-1-(2H-tetrazol-5-yl)ethyl]pentanoic acid]: the IC50 on IMP-1 is 1.6 µM; on NDM-1, 0.16 µM; on VIM-1 it was 0.0065 µM. In addition, the “NDM1 EC30016 MITC95” value in experiment [1] is 50 µM. For the same compound, in experiment [2], the “VIM1 KP599644 MITC95” value came to 25 µM. Moreover, the “IMP1 SM5741 MITC95” value in experiment [3] came to 25 µM.
Take `CCC[C@H](C(=O)O)[C@H](Cc1cccc(-c2cccc(OC3CCNCC3)n2)c1)c1nn[nH]n1` [Example 348, (2S)-2-[(1S)-2-{3-[6-(piperidin-4-yloxy)pyridin-2-yl]phenyl}-1-(2H-tetrazol-5-yl)ethyl]pentanoic acid]: the IC50 on IMP-1 was 0.54 µM; at NDM-1 it was 0.022 µM; at VIM-1, 0.0022 µM. Further, the “NDM1 EC30016 MITC95” value in experiment [1] is 18.8 µM. The “VIM1 KP599644 MITC95” value in experiment [2] was 18.8 µM. In addition, the “IMP1 SM5741 MITC95” value in experiment [3] came out at 6.2 µM.
Consider `CCC[C@H](C(=O)O)[C@H](Cc1cccc(-c2ccnc(N)c2)c1)c1nn[nH]n1` [Example 349, (2S)-2-[(1S)-2-[3-(2-aminopyridin-4-yl)phenyl]-1-(2H-tetrazol-5-yl)ethyl]pentanoic acid], for which the IC50 on IMP-1 came out at 0.14 µM; on NDM-1, 0.011 µM; at VIM-1, 0.0013 µM. In experiment [1], the “NDM1 EC30016 MITC95” value was determined as 9.4 µM. In addition, in experiment [2], the “VIM1 KP599644 MITC95” value came out at 12.5 µM. For the same compound, the “IMP1 SM5741 MITC95” value in experiment [3] turned out to be 3.9 µM.
As for `CCC[C@H](C(=O)O)[C@H](Cc1cccc(-c2ccc(C3CCNCC3)cc2)c1)c1nn[nH]n1` [Example 350, (2S)-2-[(1S)-2-(4′-piperidin-4-ylbiphenyl-3-yl)-1-(2H-tetrazol-5-yl)ethyl]pentanoic acid], the IC50 turned out to be 0.38 µM on IMP-1, 0.026 µM at NDM-1 and 0.003 µM on VIM-1. The “NDM1 EC30016 MITC95” value in experiment [1] is 25 µM. Further, in experiment [2], the “VIM1 KP599644 MITC95” value is 25 µM. Besides, the “IMP1 SM5741 MITC95” value in experiment [3] is 6.2 µM.
On to `CCC[C@H](C(=O)O)[C@H](Cc1cccc(-c2ccc(C(N)=O)cc2)c1)c1nn[nH]n1` [Example 351, (2S)-2-[(1)-2-(4′-carbamoylbiphenyl-3-yl)-1-(2H-tetrazol-5-yl)ethyl]pentanoic acid], for which the 50% inhibitory concentration (IC50) at IMP-1 worked out at 0.024 µM; on NDM-1 it was 0.00078 µM; on VIM-1, 0.0016 µM. Besides, in experiment [1], the “NDM1 EC30016 MITC95” value came out at 7.8 µM. Further, the “VIM1 KP599644 MITC95” value in experiment [2] turned out to be 25 µM. In addition, the “IMP1 SM5741 MITC95” value in experiment [3] was found to be 0.59 µM.
Regarding `CCC[C@H](C(=O)O)[C@H](Cc1cccc(-c2cncc3ccccc23)c1)c1nn[nH]n1` [Example 352, (2S)-2-[(1S)-2-(3-isoquinolin-4-ylphenyl)-1-(2H-tetrazol-5-yl)ethyl]pentanoic acid], the IC50 on IMP-1 worked out at 0.0078 µM; on NDM-1 it was 0.0017 µM; at VIM-1 it was 0.0017 µM. The “NDM1 EC30016 MITC95” value in experiment [1] came to 18.8 µM. Further, in experiment [2], the “VIM1 KP599644 MITC95” value was 50 µM. The “IMP1 SM5741 MITC95” value in experiment [3] was 0.39 µM.
As to `CCC[C@H](C(=O)O)[C@H](Cc1cccc(-c2ccncc2)c1)c1nn[nH]n1` [Example 353, (2S)-2-[(1S)-2-(3-pyridin-4-ylphenyl)-1-(2H-tetrazol-5-yl)ethyl]pentanoic acid], the IC50 stood at 0.16 µM on IMP-1, 0.013 µM at NDM-1 and 0.0023 µM on VIM-1. For the same compound, the “NDM1 EC30016 MITC95” value in experiment [1] came to 38 µM. Besides, the “VIM1 KP599644 MITC95” value in experiment [2] came to 100 µM. The “IMP1 SM5741 MITC95” value in experiment [3] came to 6.2 µM.
Regarding `CCC[C@H](C(=O)O)[C@H](Cc1cccc(-c2ccc3c(c2)CCC(N)C3)c1)c1nn[nH]n1` (stereo partly drawn) [Example 354, (2S)-2-[(1S)-2-[3-(6-amino-5,6,7,8-tetrahydronaphthalen-2-yl)phenyl]-1-(2H-tetrazol-5-yl)ethyl]pentanoic acid], the 50% inhibitory concentration (IC50) at IMP-1 amounted to 0.31 µM; at NDM-1, 0.013 µM; at VIM-1, 0.0014 µM. Moreover, in experiment [1], the “NDM1 EC30016 MITC95” value stood at 9.4 µM. Further, in experiment [2], the “VIM1 KP599644 MITC95” value amounted to 9.4 µM. For the same compound, the “IMP1 SM5741 MITC95” value in experiment [3] worked out at 4.7 µM.
Take `CCC[C@H](C(=O)O)[C@H](Cc1cccc(-c2ccc(N3CCNCC3)nc2)c1)c1nn[nH]n1` [Example 355, (2S)-2-[(1S)-2-[3-(6-piperazin-1-ylpyridin-3-yl)phenyl]-1-(2H-tetrazol-5-yl)ethyl]pentanoic acid]: the IC50 at IMP-1 worked out at 0.55 µM; on NDM-1, 0.021 µM; at VIM-1, 0.0028 µM. For the same compound, the “NDM1 EC30016 MITC95” value in experiment [1] came out at 12.5 µM. Also, the “VIM1 KP599644 MITC95” value in experiment [2] stood at 18.8 µM. Further, the “IMP1 SM5741 MITC95” value in experiment [3] was determined as 9.4 µM.
With `CCC[C@H](C(=O)O)[C@H](Cc1cccc(-c2cnc(N)c(F)c2)c1)c1nn[nH]n1` [Example 356, (2S)-2-[(1S)-2-[3-(6-amino-5-fluoropyridin-3-yl)phenyl]-1-(2H-tetrazol-5-yl)ethyl]pentanoic acid], the values for the IC50 on IMP-1, at NDM-1 and at VIM-1 were 0.17 µM, 0.0062 µM and 0.0015 µM, respectively. Also, in experiment [1], the “NDM1 EC30016 MITC95” value came out at 25 µM. In experiment [2], the “VIM1 KP599644 MITC95” value was found to be 18.8 µM. In experiment [3], the “IMP1 SM5741 MITC95” value came out at 4.7 µM.

The values above are taken from patent US9839642B2, “Beta-tetrazolyl-propionic acids as metallo-beta-lactamase inhibitors” (priority 2014, dated 2017).
